Reference: publication PMC7024302, “Ultrashort Cationic Lipopeptides–Effect of N-Terminal Amino Acid and Fatty Acid Type on Antimicrobial Activity and Hemolysis” (Molecules, 2020)
Converted amounts (≈) assume the structure as drawn. Residues, ends and D or L forms follow the SMILES beside them.

Tests used:
[1] = Determination of peptide hydrophobicity with RP-HPLC (adjusted retention time); format: physicochemical; settings: RP-HPLC C18, linear 10–55% acetonitrile over 60 min, 0.1% TFA, 25.0 °C, UV 214 nm, triplicate; for tR’: Table 3, adjusted retention time as hydrophobicity
Method in brief: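 Peptides at 1 g/L in water with 0.1% TFA run on a C18 column (3.0 × 100 mm, 5 µm). Elution with a linear 10–55% acetonitrile gradient over 60 min, 0.1% TFA in both eluents, 0.5 mL/min, 25.0 ± 0.1 °C. Detection at 214 nm, in triplicate.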

[2] = test system: S. aureus ATCC 25923; format: cell-based, Staphylococcus aureus; settings: ATCC 25923, 18 h
Method in brief: (§1)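 CLSI broth microdilution in MHB, bacterial inoculum 5 × 10^5 CFU/mL exposed to lipopeptides at 0.5–256 µg/mL, 18 h at 37 °C. MIC taken as lowest concentration inhibiting noticeable growth; triplicate runs.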

[3] = test system: S. aureus ATCC 33591 (MRSA); format: cell-based, Staphylococcus aureus; settings: ATCC 33591, 18 h
Method in brief: as §1

[4] = test system: P. aeruginosa ATCC 9027; format: cell-based, Pseudomonas aeruginosa; settings: ATCC 9027, 18 h
Method in brief: as §1

[5] = test system: C. albicans ATCC 10231; format: cell-based, Candida albicans; settings: ATCC 10231, 24 h, pH 7
[6] = test system: human red blood cells (hRBCs); format: cell-based; settings: red cells of human, 1 h
Method in brief: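 Fresh EDTA-anticoagulated human RBCs, PBS-washed, at 4% (v/v) final were exposed to lipopeptides at 0.5–256 µg/mL for 1 h at 37 °C. Released haemoglobin in supernatant read at 540 nm; PBS as 0% and 1% Triton X-100 as 100% haemolysis. Triplicates.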

[7] = test system: E. faecium ATCC 700221; format: cell-based, Enterococcus faecium; settings: ATCC 700221, 18 h
Method in brief: as §1

[8] = test system: K. pneumoniae ATCC 700603; format: cell-based, Klebsiella pneumoniae; settings: ATCC 700603, 18 h
Method in brief: as §1

[9] = test system: A. baumannii ATCC BAA-1605; format: cell-based, Acinetobacter baumannii; settings: ATCC BAA-1605, 18 h
Method in brief: as §1

[10] = test system: K. aerogenes ATCC 13048; format: cell-based, Klebsiella aerogenes; settings: ATCC 13048, 18 h
Method in brief: as §1

Compound	Adjusted retention time ([1]; Table 2, nC = carbon atoms in fatty acid chain) [min]	MIC SA [2]	MIC S [3]	MIC PA [4] [µg/mL]	MIC CA [5] [µg/mL]	HC50 [6]	MIC E1 [7]	MIC K [8]	MIC A [9] [µg/mL]	MIC E2 [10]	tR’ [1] [min]
CCCCCCCCCCCCCC(=O)N[C@@H](CCCC)C(=O)N[C@@H](CCCNC(=N)N)C(=O)N[C@@H](CCCNC(=N)N)C(N)=O [compound 66, C14-NleRR-NH2] (HELM PEPTIDE1{[CCCCCCCCCCCCCC(=O)[*:2]].[Nle].R.R.[am]}$$$$V2.0)	46.681	4 µg/mL (≈ 6.13 µM)	8 µg/mL (≈ 12.3 µM)	4 (≈ 6.13 µM)	4 (≈ 6.13 µM)	37.54 (±1.39) µg/mL	8 µg/mL (≈ 12.3 µM)	32 µg/mL (≈ 49 µM)	64 (≈ 98 µM)	32 µg/mL (≈ 49 µM)	–
CCCCCCCCCCCC(=O)N[C@@H](CCC)C(=O)N[C@@H](CCCNC(=N)N)C(=O)N[C@@H](CCCNC(=N)N)C(N)=O [compound 69, C12-NvaRR-NH2] (HELM PEPTIDE1{[CCCCCCCCCCCC(=O)[*:2]].[Nva].R.R.[am]}$$$$V2.0)	–	8 µg/mL (≈ 13.1 µM)	16 µg/mL (≈ 26.2 µM)	32 (≈ 52.4 µM)	32 (≈ 52.4 µM)	207.62 (±5.27) µg/mL	16 µg/mL (≈ 26.2 µM)	256 µg/mL (≈ 419 µM)	64 (≈ 105 µM)	256 µg/mL (≈ 419 µM)	37.67
CCCCCCCCCCCCCC(=O)N[C@@H](CCC)C(=O)N[C@@H](CCCNC(=N)N)C(=O)N[C@@H](CCCNC(=N)N)C(N)=O [compound 70, C14-NvaRR-NH2] (HELM PEPTIDE1{[CCCCCCCCCCCCCC(=O)[*:2]].[Nva].R.R.[am]}$$$$V2.0)	–	4 µg/mL (≈ 6.26 µM)	4 µg/mL (≈ 6.26 µM)	8 (≈ 12.5 µM)	4 (≈ 6.26 µM)	42.04 (±1.38) µg/mL	4 µg/mL (≈ 6.26 µM)	128 µg/mL (≈ 200 µM)	64 (≈ 100 µM)	128 µg/mL (≈ 200 µM)	44.53
CCCCCCCCCCCCCC(=O)N1CCC[C@H]1C(=O)N[C@@H](CCCNC(=N)N)C(=O)N[C@@H](CCCNC(=N)N)C(N)=O [compound 74, C14-PRR-NH2]	–	16 µg/mL (≈ 25.1 µM)	8 µg/mL (≈ 12.6 µM)	16 (≈ 25.1 µM)	8 (≈ 12.6 µM)	53.41 (±1.84) µg/mL	8 µg/mL (≈ 12.6 µM)	256 µg/mL (≈ 402 µM)	64 (≈ 100 µM)	256 µg/mL (≈ 402 µM)	42.61
CCCCCCCCCCCCCC(=O)N[C@@H](CCC(N)=O)C(=O)N[C@@H](CCCNC(=N)N)C(=O)N[C@@H](CCCNC(=N)N)C(N)=O [compound 78, C14-QRR-NH2] (HELM PEPTIDE1{[CCCCCCCCCCCCCC(=O)[*:2]].Q.R.R.[am]}$$$$V2.0)	–	16 µg/mL (≈ 24 µM)	16 µg/mL (≈ 24 µM)	32 (≈ 47.9 µM)	32 (≈ 47.9 µM)	72.31 (±3.00) µg/mL	16 µg/mL (≈ 24 µM)	256 µg/mL (≈ 383 µM)	64 (≈ 95.8 µM)	256 µg/mL (≈ 383 µM)	38.52
CCCCCCCCCCCC(=O)N[C@@H](CCCNC(=N)N)C(=O)N[C@@H](CCCNC(=N)N)C(=O)N[C@@H](CCCNC(=N)N)C(N)=O [compound 81, C12-RRR-NH2] (HELM PEPTIDE1{[CCCCCCCCCCCC(=O)[*:2]].R.R.R.[am]}$$$$V2.0)	–	16 (>16) µg/mL	32 µg/mL (≈ 47.9 µM)	128 (≈ 192 µM)	128 (≈ 192 µM)	>256 µg/mL	16 (>16) µg/mL	>256 (-) µg/mL	256 (≈ 383 µM)	>256 (-) µg/mL	30.00
CCCCCCCCCCCCCC(=O)N[C@@H](CCCNC(=N)N)C(=O)N[C@@H](CCCNC(=N)N)C(=O)N[C@@H](CCCNC(=N)N)C(N)=O [compound 82, C14-RRR-NH2] (HELM PEPTIDE1{[CCCCCCCCCCCCCC(=O)[*:2]].R.R.R.[am]}$$$$V2.0)	–	4 µg/mL (≈ 5.75 µM)	8 µg/mL (≈ 11.5 µM)	32 (≈ 46 µM)	16 (≈ 23 µM)	211.32 (±9.57) µg/mL	8 µg/mL (≈ 11.5 µM)	128 µg/mL (≈ 184 µM)	128 (≈ 184 µM)	128 µg/mL (≈ 184 µM)	36.76
CCCCCCCCCCCCCC(=O)N[C@@H](CO)C(=O)N[C@@H](CCCNC(=N)N)C(=O)N[C@@H](CCCNC(=N)N)C(N)=O [compound 86, C14-SRR-NH2] (HELM PEPTIDE1{[CCCCCCCCCCCCCC(=O)[*:2]].S.R.R.[am]}$$$$V2.0)	–	16 µg/mL (≈ 25.5 µM)	16 µg/mL (≈ 25.5 µM)	32 (≈ 51 µM)	32 (≈ 51 µM)	41.54 (±1.29) µg/mL	16 µg/mL (≈ 25.5 µM)	128 µg/mL (≈ 204 µM)	32 (≈ 51 µM)	128 µg/mL (≈ 204 µM)	39.72

Second part, the compound after the results:

Adjusted retention time ([1]; Table 2, nC = carbon atoms in fatty acid chain) [min]	MIC SA [2]	MIC S [3]	MIC PA [4] [µg/mL]	MIC CA [5] [µg/mL]	HC50 [6]	MIC E1 [7]	MIC K [8]	MIC A [9] [µg/mL]	MIC E2 [10]	tR’ [1] [min]	Compound
–	8 µg/mL (≈ 12.5 µM)	8 µg/mL (≈ 12.5 µM)	32 (≈ 49.9 µM)	8 (≈ 12.5 µM)	43.43 (±0.90) µg/mL	8 µg/mL (≈ 12.5 µM)	128 µg/mL (≈ 200 µM)	64 (≈ 99.9 µM)	128 µg/mL (≈ 200 µM)	40.80	CCCCCCCCCCCCCC(=O)N[C@H](C(=O)N[C@@H](CCCNC(=N)N)C(=O)N[C@@H](CCCNC(=N)N)C(N)=O)[C@@H](C)O [compound 90, C14-TRR-NH2] (HELM PEPTIDE1{[CCCCCCCCCCCCCC(=O)[*:2]].T.R.R.[am]}$$$$V2.0)
–	16 µg/mL (≈ 26.2 µM)	16 µg/mL (≈ 26.2 µM)	32 (≈ 52.4 µM)	32 (≈ 52.4 µM)	246.30 (±14.12) µg/mL	16 µg/mL (≈ 26.2 µM)	>256 (-) µg/mL	128 (≈ 210 µM)	256 µg/mL (≈ 419 µM)	37.17	CCCCCCCCCCCC(=O)N[C@H](C(=O)N[C@@H](CCCNC(=N)N)C(=O)N[C@@H](CCCNC(=N)N)C(N)=O)C(C)C [compound 93, C12-VRR-NH2] (HELM PEPTIDE1{[CCCCCCCCCCCC(=O)[*:2]].V.R.R.[am]}$$$$V2.0)
–	4 µg/mL (≈ 6.26 µM)	4 µg/mL (≈ 6.26 µM)	8 (≈ 12.5 µM)	8 (≈ 12.5 µM)	30.73 (±0.41) µg/mL	16 µg/mL (≈ 25 µM)	128 µg/mL (≈ 200 µM)	32 (≈ 50.1 µM)	128 µg/mL (≈ 200 µM)	44.02	CCCCCCCCCCCCCC(=O)N[C@H](C(=O)N[C@@H](CCCNC(=N)N)C(=O)N[C@@H](CCCNC(=N)N)C(N)=O)C(C)C [compound 94, C14-VRR-NH2] (HELM PEPTIDE1{[CCCCCCCCCCCCCC(=O)[*:2]].V.R.R.[am]}$$$$V2.0)
–	16 (>16) µg/mL	16 (>16) µg/mL	32 (≈ 47.8 µM)	32 (≈ 47.8 µM)	>256 µg/mL	16 (>16) µg/mL	>256 (-) µg/mL	64 (≈ 95.5 µM)	>256 (-) µg/mL	34.31	CCCCCCCCCC(=O)N[C@@H](Cc1c[nH]c2ccccc12)C(=O)N[C@@H](CCCNC(=N)N)C(=O)N[C@@H](CCCNC(=N)N)C(N)=O [compound 96, C10-WRR-NH2] (HELM PEPTIDE1{[CCCCCCCCCC(=O)[*:2]].W.R.R.[am]}$$$$V2.0)
–	4 µg/mL (≈ 5.73 µM)	2 µg/mL (≈ 2.87 µM)	8 (≈ 11.5 µM)	8 (≈ 11.5 µM)	42.42 (±0.57) µg/mL	8 µg/mL (≈ 11.5 µM)	256 µg/mL (≈ 367 µM)	32 (≈ 45.8 µM)	256 µg/mL (≈ 367 µM)	40.79	CCCCCCCCCCCC(=O)N[C@@H](Cc1c[nH]c2ccccc12)C(=O)N[C@@H](CCCNC(=N)N)C(=O)N[C@@H](CCCNC(=N)N)C(N)=O [compound 97, C12-WRR-NH2] (HELM PEPTIDE1{[CCCCCCCCCCCC(=O)[*:2]].W.R.R.[am]}$$$$V2.0)
–	4 µg/mL (≈ 5.51 µM)	2 µg/mL (≈ 2.75 µM)	8 (≈ 11 µM)	4 (≈ 5.51 µM)	36.91 (±0.89) µg/mL	8 µg/mL (≈ 11 µM)	64 µg/mL (≈ 88.2 µM)	128 (≈ 176 µM)	32 µg/mL (≈ 44.1 µM)	47.11	CCCCCCCCCCCCCC(=O)N[C@@H](Cc1c[nH]c2ccccc12)C(=O)N[C@@H](CCCNC(=N)N)C(=O)N[C@@H](CCCNC(=N)N)C(N)=O [compound 98, C14-WRR-NH2] (HELM PEPTIDE1{[CCCCCCCCCCCCCC(=O)[*:2]].W.R.R.[am]}$$$$V2.0)
